Measurements: paper PMC10504751, “Chalcone/1,3,4-Oxadiazole/Benzimidazole hybrids as novel anti-proliferative agents inducing apoptosis and inhibiting EGFR & BRAFV^600E” (BMC Chemistry, 2023)
Where two headings read alike, the source gives them in different places.

Assays:
Assay in all cases: NCI one-dose SRB anti-proliferative screen
Assay type in all cases: cell-based
786-0 = settings: Homo sapiens, read-out: Cell growth inhibition %
Procedure, shortened: (§1)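 Activity reflects a single-point exposure at 10 µM, with cell mass determined by a sulforhodamine B dye assay.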

A498 = settings: Homo sapiens, read-out: Cell growth inhibition %
Procedure, shortened: as §1

ACHN = settings: Homo sapiens, read-out: Cell growth inhibition %
Procedure, shortened: as §1

CAKI-1 = settings: Homo sapiens, read-out: Cell growth inhibition %
Procedure, shortened: as §1

DU-145 = settings: Homo sapiens, read-out: Cell growth inhibition %
Procedure, shortened: as §1

HCC-2998 = settings: Homo sapiens, read-out: Cell growth inhibition %
Procedure, shortened: as §1

HL-60(TB) = settings: Homo sapiens, read-out: Cell growth inhibition %
Procedure, shortened: as §1

HOP-92 = settings: Homo sapiens, read-out: Cell growth inhibition %
Procedure, shortened: as §1

HT29 = settings: Homo sapiens, HT-29, read-out: Cell growth inhibition %
Procedure, shortened: as §1

KM12 = settings: Homo sapiens, read-out: Cell growth inhibition %
Procedure, shortened: as §1

LOX IMVI = settings: Homo sapiens; for inhibition at 10 µM: read-out: Cell growth inhibition %
Procedure, shortened: as §1

MDA-MB-231/ATCC = settings: Homo sapiens, read-out: Cell growth inhibition %
Procedure, shortened: as §1

MDA-MB-468 = settings: Homo sapiens, read-out: Cell growth inhibition %
Procedure, shortened: as §1

NCI-H226 = settings: Homo sapiens, read-out: Cell growth inhibition %
Procedure, shortened: as §1

NCI-H23 = settings: Homo sapiens, read-out: Cell growth inhibition %
Procedure, shortened: as §1

NCI-H322M = settings: Homo sapiens, read-out: Cell growth inhibition %
Procedure, shortened: as §1

NCI-H460 = settings: Homo sapiens, read-out: Cell growth inhibition %
Procedure, shortened: as §1

NCI/ADR-RES = settings: Homo sapiens, read-out: Cell growth inhibition %
Procedure, shortened: as §1

OVCAR-3 = settings: Homo sapiens, read-out: Cell growth inhibition %
Procedure, shortened: as §1

OVCAR-4 = settings: Homo sapiens, read-out: Cell growth inhibition %
Procedure, shortened: as §1

SF-268 = settings: Homo sapiens, read-out: Cell growth inhibition %
Procedure, shortened: as §1

SF-295 = settings: Homo sapiens, read-out: Cell growth inhibition %
Procedure, shortened: as §1

SF-539 = settings: Homo sapiens, read-out: Cell growth inhibition %
Procedure, shortened: as §1

SK-MEL-5 = settings: Homo sapiens, read-out: Cell growth inhibition %
Procedure, shortened: as §1

SNB-19 = settings: Homo sapiens, read-out: Cell growth inhibition %
Procedure, shortened: as §1

SR = settings: Homo sapiens, read-out: Cell growth inhibition %
Procedure, shortened: as §1

SW-620 = settings: Homo sapiens, read-out: Cell growth inhibition %
Procedure, shortened: as §1

TK-10 = settings: Homo sapiens, read-out: Cell growth inhibition %
Procedure, shortened: as §1

U251 = settings: Homo sapiens, U-251, read-out: Cell growth inhibition %
Procedure, shortened: as §1

[1] = 786-0 (Renal Cancer), NCI one dose 10 µM
[2] = A498 (Renal Cancer), NCI one dose 10 µM
[3] = ACHN (Renal Cancer), NCI one dose 10 µM
[4] = CAKI-1 (Renal Cancer), NCI one dose 10 µM
[5] = DU-145 (Prostate Cancer), NCI one dose 10 µM
[6] = HCC-2998 (Colon Cancer), NCI one dose 10 µM
[7] = HL-60(TB) (Leukemia), NCI one dose 10 µM
[8] = HOP-92 (Non-Small Cell Lung Cancer), NCI one dose 10 µM
[9] = HT29 (Colon Cancer), NCI one dose 10 µM
[10] = KM12 (Colon Cancer), NCI one dose 10 µM
[11] = LOX IMIV (Melanoma), NCI one dose 10 µM
[12] = MDA-MB-231/ATCC (Breast Cancer), NCI one dose 10 µM
[13] = MDA-MB-468 (Breast Cancer), NCI one dose 10 µM
[14] = NCI-H226 (Non-Small Cell Lung Cancer), NCI one dose 10 µM
[15] = NCI-H23 (Non-Small Cell Lung Cancer), NCI one dose 10 µM
[16] = NCI-H322M (Non-Small Cell Lung Cancer), NCI one dose 10 µM
[17] = NCI-H460 (Non-Small Cell Lung Cancer), NCI one dose 10 µM
[18] = NCI/ADR-RES (Ovarian Cancer), NCI one dose 10 µM
[19] = OVCAR-3 (Ovarian Cancer), NCI one dose 10 µM
[20] = OVCAR-4 (Ovarian Cancer), NCI one dose 10 µM
[21] = SF-268 (CNS Cancer), NCI one dose 10 µM
[22] = SF-295 (CNS Cancer), NCI one dose 10 µM
[23] = SF-539 (CNS Cancer), NCI one dose 10 µM
[24] = SK-MEL-5 (Melanoma), NCI one dose 10 µM
[25] = SNB-19 (CNS Cancer), NCI one dose 10 µM
[26] = SR (Leukemia), NCI one dose 10 µM
[27] = SW-620 (Colon Cancer), NCI one dose 10 µM
[28] = TK-10 (Renal Cancer), NCI one dose 10 µM
[29] = U251 (CNS Cancer), NCI one dose 10 µM

Compound `COc1ccc(-c2nc3cc(-c4nnc(SCC(=O)Nc5ccc(C(=O)/C=C/c6ccccc6)cc5)o4)ccc3[nH]2)cc1OC` [Compound 7p, 2-{5-[2-(3,4-Dimethoxyphenyl)-1 H-benzo[d]imidazol-5-yl]-1,3,4-oxadiazol-2-ylthio}-N-{4-[(E)-3-phenylacryloyl]phenyl}acetamide] has an inhibition at 10 µM (786-0; [1]) of 0.75%, an inhibition at 10 µM (A498; [2]) of 0% and an inhibition at 10 µM (ACHN; [3]) of 3.66%. It also gave an inhibition at 10 µM (CAKI-1; [4]) of 2.96%, an inhibition at 10 µM (DU-145; [5]) of 0% and an inhibition at 10 µM (HCC-2998; [6]) of 0%. The inhibition at 10 µM (HL-60(TB); [7]) was 0%, the inhibition at 10 µM (HOP-92; [8]) was 1.64% and the inhibition at 10 µM (HT29; [9]) was 0%. For the same compound, the inhibition at 10 µM (KM12; [10]) was 0.98%, the inhibition at 10 µM (LOX IMVI; [11]) was 112% and the inhibition at 10 µM (MDA-MB-231/ATCC; [12]) was 8.78%. It also gave an inhibition at 10 µM (MDA-MB-468; [13]) of 0%, an inhibition at 10 µM (NCI-H226; [14]) of 1.84% and an inhibition at 10 µM (NCI-H23; [15]) of 0.22%. The inhibition at 10 µM (NCI-H322M; [16]) was 0%, the inhibition at 10 µM (NCI-H460; [17]) was 0% and the inhibition at 10 µM (NCI/ADR-RES; [18]) was 0%. It also gave an inhibition at 10 µM (OVCAR-3; [19]) of 0%, an inhibition at 10 µM (OVCAR-4; [20]) of 0% and an inhibition at 10 µM (SF-268; [21]) of 0%. The inhibition at 10 µM (SF-295; [22]) was 5.09%, the inhibition at 10 µM (SF-539; [23]) was 16.4% and the inhibition at 10 µM (SK-MEL-5; [24]) was 4.49%. It also gave an inhibition at 10 µM (SNB-19; [25]) of 0%, an inhibition at 10 µM (SR; [26]) of 16.4% and an inhibition at 10 µM (SW-620; [27]) of 0%. It also gave an inhibition at 10 µM (TK-10; [28]) of 0% and an inhibition at 10 µM (U251; [29]) of 6.84%.

`COc1ccc(-c2nc3cc(-c4nnc(SCC(=O)Nc5ccc(C(=O)/C=C/c6ccc(OC)c(OC)c6)cc5)o4)ccc3[nH]2)cc1` [Compound 7n, 2-{5-[2-(4-Methoxyphenyl)-1 H-benzo[d]imidazol-5-yl]-1,3,4-oxadiazol-2-ylthio}-N-{4-[(E)-3-(3,4-dimethoxyphenyl)acryloyl]phenyl}acetamide] showed an inhibition at 10 µM (786-0; 786-0, Renal cancer, NCI one dose) of 8.7%, an inhibition at 10 µM (A498; A498, Renal cancer, NCI one dose) of 0% and an inhibition at 10 µM (ACHN; ACHN, Renal cancer, NCI one dose) of 10.7%. For the same compound, the inhibition at 10 µM (CAKI-1; CAKI-1, Renal cancer, NCI one dose) was 1.11%, the inhibition at 10 µM (DU-145; DU-145, Prostate Cancer, NCI one dose) was 13.4% and the inhibition at 10 µM (HCC-2998; HCC-2998, Colon cancer, NCI one dose) was 0%. It also gave an inhibition at 10 µM (HL-60(TB); HL-60(TB), Leukemia, NCI one dose) of 13.8%, an inhibition at 10 µM (HOP-92; HOP-92, Non-Small Cell Lung Cancer, NCI one dose) of 0% and an inhibition at 10 µM (HT29; HT29, Colon cancer, NCI one dose) of 0%. For the same compound, the inhibition at 10 µM (KM12; KM12, Colon cancer, NCI one dose) was 23.4%, the activity at 10 µM (LOX IMVI; LOX IMVI (Melanoma), 10 µM one dose, read-out: Growth Percent) was 44% and the inhibition at 10 µM (LOX IMVI; Melanoma, NCI one dose) was 56.1%. For the same compound, the inhibition at 10 µM (MDA-MB-231/ATCC; MDA-MB-231/ATCC, Breast cancer, NCI one dose) was 0%, the inhibition at 10 µM (MDA-MB-468; MDA-MB-468, Breast cancer, NCI one dose) was 10.7% and the inhibition at 10 µM (NCI-H226; NCI-H226, Non-Small Cell Lung Cancer, NCI one dose) was 3.76%. For the same compound, the inhibition at 10 µM (NCI-H23; NCI-H23, Non-Small Cell Lung Cancer, NCI one dose) was 19.9%, the inhibition at 10 µM (NCI-H322M; NCI-H322M, Non-Small Cell Lung Cancer, NCI one dose) was 5.07% and the inhibition at 10 µM (NCI-H460; NCI-H460, Non-Small Cell Lung Cancer, NCI one dose) was 8.91%. The inhibition at 10 µM (NCI/ADR-RES; NCI/ADR-RES, Ovarian Cancer, NCI one dose) was 6.05%, the inhibition at 10 µM (OVCAR-3; OVCAR-3, Ovarian Cancer, NCI one dose) was 14.3% and the inhibition at 10 µM (OVCAR-4; OVCAR-4, Ovarian Cancer, NCI one dose) was 13.2%. For the same compound, the inhibition at 10 µM (SF-268; SF-268, CNS Cancer, NCI one dose) was 0.44%, the inhibition at 10 µM (SF-295; SF-295, CNS Cancer, NCI one dose) was 0% and the inhibition at 10 µM (SF-539; SF-539, CNS Cancer, NCI one dose) was 13.3%. For the same compound, the inhibition at 10 µM (SK-MEL-5; SK-MEL-5, Melanoma, NCI one dose) was 16.2%, the inhibition at 10 µM (SNB-19; SNB-19, CNS Cancer, NCI one dose) was 13.2% and the inhibition at 10 µM (SR; SR, Leukemia, NCI one dose) was 73.6%. For the same compound, the inhibition at 10 µM (SW-620; SW-620, Colon cancer, NCI one dose) was 13.6%, the inhibition at 10 µM (TK-10; TK-10, Renal cancer, NCI one dose) was 0% and the inhibition at 10 µM (U251; U251, CNS Cancer, NCI one dose) was 25.3%.

With `COc1ccc(-c2nc3cc(-c4nnc(SCC(=O)Nc5ccc(C(=O)/C=C/c6ccc(Cl)cc6)cc5)o4)ccc3[nH]2)cc1OC` [Compound 7q, 2-{5-[2-(3,4-Dimethoxyphenyl)-1 H-benzo[d]imidazol-5-yl]-1,3,4-oxadiazol-2-ylthio}-N-{4-[(E)-3-(4-chlorophenyl)acryloyl]phenyl}acetamide] the inhibition at 10 µM (786-0; [1]) was 0%, the inhibition at 10 µM (A498; [2]) was 0% and the inhibition at 10 µM (ACHN; [3]) was 5.74%. It also gave an inhibition at 10 µM (CAKI-1; [4]) of 0%, an inhibition at 10 µM (DU-145; [5]) of 0% and an inhibition at 10 µM (HCC-2998; [6]) of 0%. For the same compound, the inhibition at 10 µM (HL-60(TB); [7]) was 11.3%, the inhibition at 10 µM (HOP-92; [8]) was 0% and the inhibition at 10 µM (HT29; [9]) was 0%. It also gave an inhibition at 10 µM (KM12; [10]) of 0%, an inhibition at 10 µM (LOX IMVI; [11]) of 96.8% and an inhibition at 10 µM (MDA-MB-231/ATCC; [12]) of 4.84%. For the same compound, the inhibition at 10 µM (MDA-MB-468; [13]) was 0%, the inhibition at 10 µM (NCI-H226; [14]) was 1.46% and the inhibition at 10 µM (NCI-H23; [15]) was 0%. The inhibition at 10 µM (NCI-H322M; [16]) was 4.21%, the inhibition at 10 µM (NCI-H460; [17]) was 0% and the inhibition at 10 µM (NCI/ADR-RES; [18]) was 0%. The inhibition at 10 µM (OVCAR-3; [19]) was 0%, the inhibition at 10 µM (OVCAR-4; [20]) was 0% and the inhibition at 10 µM (SF-268; [21]) was 0%. It also gave an inhibition at 10 µM (SF-295; [22]) of 1.96%, an inhibition at 10 µM (SF-539; [23]) of 16.2% and an inhibition at 10 µM (SK-MEL-5; [24]) of 2.38%. The inhibition at 10 µM (SNB-19; [25]) was 0%, the inhibition at 10 µM (SR; [26]) was 27% and the inhibition at 10 µM (SW-620; [27]) was 0%. For the same compound, the inhibition at 10 µM (TK-10; [28]) was 0% and the inhibition at 10 µM (U251; [29]) was 0%.
